System: CCI rat
Details: in vivo

Which “antinociceptive effects in a rat model of neuropathic pain” value does the source give for `CN1CC[C@]23c4c5ccc(O)c4O[C@H]2[C@@H](O)C=C[C@H]3[C@H]1C5` [morphine] here?
Its value is “produced antinociceptive effects”.

What about the “duration of antinociceptive effects” value of the same compound?
The value was 3 h.

What about the “selectivity of antinociceptive effects between paws” value of the same compound?
Its value is “selective for the ipsilateral over the contralateral paw”.
